One assay addresses T1, BRD3 (Homo sapiens, UniProt Q15059).
T1 construct: endogenous in cells; host or cells: HEK293T
Nature of the assay: Proteome-wide SILAC MS protein abundance in HEK293T cells: BRD3. The class given is cell-based. Particulars: KB02-JQ1 20 μM, 24 hours. How it is done:
HEK293T light and heavy SILAC cells were treated with DMSO and KB02-JQ1 (20 μM) or KB02-SLF (2 μM) for 24 hours, respectively. Light and heavy cells were collected and lysed in 1% NP-40 lysis buffer with complete protease inhibitor cocktail. Cells were vortexed and sonicated for 5 pulses (40%, 4). The supernatant was collected after centrifugation at 16,000 g for 10 min at 4° C. Protein concentration was determined by DC assay. 50 μg proteome from light and heavy samples were mixed, followed by methanol/chloroform precipitation. […] Next, the ratio of the peak areas under the light and heavy signals (signal-to-noise ratio>2.5) was calculated. […] In addition, peptides detected as ‘singletons,’ where only the heavy ion of a peptide pair was identified, but that cleared all other filtering parameters, were given a default assigned ratio of ‘20,’ which is defined as any measured ratio that is ≥20 and is the maximum ratio reported here.” The median SILAC ratios from quantified peptides were used as measures of protein abundance. The following quality filters were further applied to generate the plot: (1) proteins must have at least two quantified peptides; (2) proteins must be present in both replicates; (3) for each protein, the standard deviation of measured ratios of peptides must be <1.0.

The target in another assay is T2, BRD4 (Homo sapiens, UniProt O60885).
T2 construct: degradation of endogenous BRD4 in HEK293T cells; endogenous in cells; host or cells: HEK293T (A10, A16); HEK293 DCAF16+/+ and DCAF16-/- clones (A11)
Briefly: Western blot of endogenous BRD4 in HEK293T cells. The class given is cell-based. Particulars: HEK293T, 24 hours. The method, then:
(§1) Cells were collected and lysed in 1% NP-40 lysis buffer (25 mM Tris-HCl pH 7.4, 150 mM NaCl, 10% glycerol, 1% Nonidet P-40) with complete protease inhibitor cocktail (Roche). Cells were vortexed and sonicated for 5 pulses (40%, 4). The supernatant was collected after centrifugation at 16,000 g for 10 min at 4° C. Protein concentration was determined by DC assay (Bio-Rad). Protein lysate was heated at 95° C. for 5 min in 1× Laemmli sample buffer. Proteins were resolved by 12% or 14% Novex Tris-Glycine Mini Gels (Invitrogen) and transferred to polyvinylidene fluoride (PVDF) membrane (0.2 Bio-Rad). The membrane was blocked with 5% BSA in TBST buffer (0.1% Tween 20, 20 mM Tris-HCl 7.6, 150 mM NaCl) at room temperature for 1 h. The antibody was diluted with fresh 5% BSA in TBST buffer (1:10000 dilution for FLAG, HA and β-Actin, 1:1000 dilution for others) and incubated with membrane (1 h room temperature for FLAG, HA and β-Actin, overnight 4° C. for others). Membrane was washed three times with TBST buffer and incubated with secondary antibody (1:5000 dilution in 5% BSA in TBST) at room temperature for 1 h. Membrane was washed three times with TBST buffer. The chemiluminescence signal in membrane was recorded after developing in ECL or ECL plus western blotting detection reagent using CL-XPosure film (Thermo Scientific). Relative band intensities were quantified using ImageJ.
For orientation: In western blotting, separated proteins are transferred to a membrane and probed.

Another assay addresses FLAG-FKBP12_NLS (Homo sapiens, UniProt P62942). Nature of the assay: Western blot of stably expressed FLAG-FKBP12_NLS in MDA-MB-231 cells. The class given is cell-based. The arrangement: expressed in transfected cells; host or cells: HEK293T, MDA-MB-231 and HEK293 DCAF16+/+ and DCAF16-/- clones (lentiviral pCDH-CMV-MCS-EF1-Puro). As to conditions: 1 μM, 8 hours. The method, then:
FLAG-FKBP12 or FLAG-FKBP12_NLS lentivirus was generated by co-transfection of FLAG-FKBP12 or FLAG-FKBP12_NLS, pCMV-dR8.2 and pMD2.G into HEK 293T cells using FuGene 6 transfection reagent (Promega). Virus-containing medium were collected 48 h after transfection, filtered with […] filter, and used to transduce HEK293T and MDA-MB-231 cells in the presence of 10 μg/mL polybrene (Santa Cruz). 72 h after transduction, puromycin (2 μg/mL) was added to cells. HEK293T cells stably expressing FLAG-FKBP12 or FLAG-FKBP12_NLS were obtained after puromycin selection for 7 days. HEK293T cells stably expressing pCDH empty vector were generated in parallel as control.
as §1

Assay [1] has as its system HA-DCAF16 and FLAG-FKBP12_NLS. Briefly: Co-immunoprecipitation of HA-DCAF16 with FLAG-FKBP12_NLS (ternary complex) in HEK293T cells. The class given is cell-based, human. Particulars: KB02-SLF, cells pre-treated with MG132. How it is done: as §1
Cells were collected and lysed in 1% NP-40 lysis buffer with complete protease inhibitor cocktail on ice for 10 min, followed by 5 pulses of sonication (40%, 4). After centrifugation at 16,000 g for 10 min at 4° C., the supernatant was collected. FLAG affinity gel (20 μL slurry per sample) was incubated with protein lysates at 4° C. for 1 h and washed four times with IP washing buffer. The affinity gel was heated at 95° C. for 10 min in 2× Laemmli sample buffer, followed by western blot analysis.

Structures are written as SMILES.

Sequence of FLAG-FKBP12_NLS (P62942 whole entry): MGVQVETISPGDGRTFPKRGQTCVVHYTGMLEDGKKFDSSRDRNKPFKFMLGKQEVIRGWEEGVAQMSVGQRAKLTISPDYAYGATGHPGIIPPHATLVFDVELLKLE
T1 sequence (Q15059 whole entry): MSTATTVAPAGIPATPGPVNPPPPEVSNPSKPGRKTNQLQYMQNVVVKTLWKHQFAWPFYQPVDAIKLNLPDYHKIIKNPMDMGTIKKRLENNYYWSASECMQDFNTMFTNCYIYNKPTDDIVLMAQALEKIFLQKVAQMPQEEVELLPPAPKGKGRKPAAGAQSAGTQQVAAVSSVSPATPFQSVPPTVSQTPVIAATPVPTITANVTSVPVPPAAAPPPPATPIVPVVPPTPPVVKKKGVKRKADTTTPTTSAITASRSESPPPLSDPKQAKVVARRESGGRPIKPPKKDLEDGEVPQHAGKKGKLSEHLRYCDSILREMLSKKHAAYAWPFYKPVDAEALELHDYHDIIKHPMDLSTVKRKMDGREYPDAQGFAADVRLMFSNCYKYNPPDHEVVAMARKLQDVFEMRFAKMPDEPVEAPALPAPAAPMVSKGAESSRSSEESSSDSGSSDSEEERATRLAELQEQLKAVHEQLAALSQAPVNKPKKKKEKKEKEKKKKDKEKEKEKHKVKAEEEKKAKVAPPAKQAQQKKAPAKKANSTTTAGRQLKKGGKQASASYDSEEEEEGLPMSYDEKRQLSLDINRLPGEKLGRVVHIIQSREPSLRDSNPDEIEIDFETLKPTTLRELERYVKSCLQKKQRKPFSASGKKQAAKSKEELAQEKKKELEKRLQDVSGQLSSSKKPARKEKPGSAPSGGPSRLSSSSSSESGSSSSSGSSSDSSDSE

For `Cc1sc2c(c1C)C(c1ccc(Cl)cc1)=N[C@@H](CC(=O)NCCOCCOCCNC(=O)COc1ccc3c(c1)CCCN3C(=O)CCl)c1nnc(C)n1-2` [KB02-JQ1, (S)-2-((1-(2-chloroacetyl)-1,2,3,4-tetrahydroquinolin-6-yl)oxy)-N-(2-(2-(2-(2-(4-(4-chlorophenyl)-2,3,9-trimethyl-6H-thieno[3,2-f][1,2,4]triazolo[4,3-a][1,4]diazepin-6-yl)acetamido)ethoxy)ethoxy)ethyl)acetamide], the “BRD3 abundance (MS-based proteomics)” value on BRD3 is on record as “not BRD2 or BRD3”. At BRD4, the “concentration for degradation of BRD4” value was in the range of 20 to 40 µM and the “degradation of BRD4” value is reported as “promoted, in a concentration-dependent manner, the degradation of BRD4”.

Consider `CCC(C)(C)C(=O)C(=O)N1CCCC[C@H]1C(=O)O[C@H](CCc1ccc(OC)c(OC)c1)c1cccc(NC(=O)CCOCCOCCNC(=O)COc2ccc3c(c2)CCCN3C(=O)CCl)c1` [KB02-SLF, (R)-1-(3-(3-(2-(2-(2-((1-(2-chloroacetyl)-1,2,3,4-tetrahydroquinolin-6-yl)oxy)acetamido)ethoxy)ethoxy)propanamido)phenyl)-3-(3,4-dimethoxyphenyl)propyl (S)-1-(3,3-dimethyl-2-oxopentanoyl)piperidine-2-carboxylate], for which, on FLAG-FKBP12_NLS, the “degradation of FLAG-FKBP12_NLS in MDA-MB-231 cells” value is reported as “degrades FLAG-FKBP12_NLS”. In assay [1], the “co-immunoprecipitation of C173S- and C178S-DCAF16 with FKBP12_NLS” value is recorded as “co-immunoprecipitated with FKBP12_NLS in KB02-SLF-treated cells”; the “co-immunoprecipitation of C177S- and C179S-DCAF16 with FKBP12_NLS” value was “not C177S- and C179S-DCAF16”.

The values are drawn from US11691984B2, “Compounds and methods for DCAF-mediated protein degradation” (The Scripps Research Institute, priority 2018, dated 2023).
